Assay results published in patent publication US4472413A, “9'-Azabicyclo [3.3.1] nonyl benzamide” (Beecham Group p.l.c., priority 1981, dated 1984).

System: post-synaptic Dopamine (D.A.) receptors
Assay: Inhibition of apomorphine induced climbing in the mouse
Type: in vivo
Details: po, 4 hour post dosing; apomorphine 1 mg/kg subcutaneous; male CD1 mice
Description: The results in the following table are an illustration of the anti-psychotic activity of the present compounds as shown by Inhibition of Apormorphine Induced Climbing in the Mouse, a standard test.
Inhibition of apomorphine induced climbing in the mouse
The test is based on that described by Protais, P., Constantin, J. and Schwartz J. C. (1976), Psychopharmacology, 50, 1-6.
When mice are given a dose of 1 mg/kg apomorphine and then placed in an enclosed environment, such as an inverted wire cage, they are seen to climb around the walls. This behavioural phenomenon is thought to be a consequence of the stimulation of post-synaptic Dopamine (D.A.) receptors in the nucleus accumbens. Inhibition of apomorphine induced climbing is therefore indicative of post-synaptic D.A. receptor blockage in the accumbens.
Groups of 10 male CD1 mice, weighing 25-30 g were pre-treated orally with either graded doses of the test compound or vehicle, at appropriate time intervals before the subcutaneous administration of a sub-maximal dose of apomorphine (1 mg/kg). Immediately after the apomorphine injection the mice were placed in wire `climbing cages` and each animal was scored for climbing behaviour at 10 and 20 minutes post apomorphine as follows:
Four paws on cage floor=0
The total score was calculated for each group of mice and expressed as a percentage inhibition of climbing. [formula]
ED50's and fiducial limits were calculated according to the method of Litchfield and Wilcoxon, the ED50 being the dose that produced a 50% inhibition of apomorphine-induced climbing.

In the case of `COc1cc(N)c(Cl)cc1C(=O)N[C@@H]1C[C@H]2CCC[C@@H](C1)N2Cc1ccc(F)cc1` [Example 1B, 4-Amino-5-chloro-2-methoxy-N-{3'β-[9'-(4-fluorobenzyl)-9'-azabicyclo[3.3.1]-nonyl]}-benzamide], the “ED50 (dose that produced a 50% inhibition of apomorphine-induced climbing)” value is reported as 0.008 mg/kg.
In the case of `COc1cc(N)c(Cl)cc1C(=O)N[C@@H]1C[C@H]2CCC[C@@H](C1)N2Cc1ccc(Cl)cc1` [Example 2B], the “ED50 (dose that produced a 50% inhibition of apomorphine-induced climbing)” value is reported as 0.027 mg/kg.
For `COc1cc(N)c(Cl)cc1C(=O)N[C@@H]1C[C@H]2CCC[C@@H](C1)N2Cc1ccc(C)cc1` [Example 3B, 4-Amino-5-chloro-2-methoxy-N-{3'β[9'-(4-methylbenzyl)-9'-azabicyclo[3.3.1]-nonyl]}-benzamide], the “ED50 (dose that produced a 50% inhibition of apomorphine-induced climbing)” value was 0.07 mg/kg.
